Compound | melting point [°C]
CCCOc1cccc(CCCOc2ccc3c(c2)C=C(C(=O)O)CCS3(=O)=O)c1 | 128 to 131
CCOC(=O)c1c(C)cc2cnc(-c3ccccc3C(F)(F)F)nc2c1C | 68 to 69
CC(=O)N1CCC(OC(=O)c2ccccc2)(c2nccc3ccccc23)CC1 | 186 to 189
Cc1ccc(-n2c(-c3sc(Nc4ccc(Cl)cc4)nc3-c3ccccc3)nc3ccccc3c2=O)cc1 | > 275
COCOc1c(-c2ccccc2)sc2cnccc12 | 55 to 56
CC(C)c1[nH]nc2c1C(=O)c1c(NC(N)=O)cccc1-2 | > 250
CCc1cccc2oc(C(=O)Nc3ccc(-c4ccc(S(=O)(=O)NC(C(=O)OC)C(C)C)cc4)cc3)c(C)c12 (stereo not given) | 183 to 185
Nc1cc(CS(=O)(=O)CCO)ccc1CS(=O)(=O)CCO | 196 to 198
CC(SC1COC(c2ccc(C(=O)Nc3ccc(Br)cc3)cc2)OC1)C(O)(Cn1cncn1)c1ccc(F)cc1F (stereo not given) | 221
CN(C)C(=O)Cn1c(-c2ccc(C(F)(F)F)cc2)nc2cccnc21 | 181 to 183
COc1ccc(Nc2cc([N+](=O)[O-])ccc2C)c(C(=O)O)c1 | 219 to 221
C=Cc1ccc(NS(C)(=O)=O)cc1 | 97
CCCS(=O)(=O)C(c1cnc(C(N)=O)cc1C)c1c(F)ccc(F)c1F (stereo not given) | 202 to 204
Nc1c(Cl)ncnc1Nn1ccc2ccccc21 | 175 to 176
CC(C)C(NC(=O)N1CCc2cc(S(=O)(=O)N3CCN(c4cccc(Cl)c4)CC3)ccc21)C(=O)O (stereo not given) | 185 to 186
Cn1c(=O)c2nc(C(=O)O)cn2c2ccccc21 | 267 to 268
N#Cc1cc(C#N)c(-c2ccc(Cl)cc2)[nH]1 | 235 to 240
COc1cc(N)c(Cl)cc1C(=O)N[C@H]1CCN(CCCNc2ncccn2)C[C@H]1OC (relative stereo) | 158
CCCCC(=O)OCC1OC(n2cnc3c(OC)nc(N)nc32)C(O)C1O (stereo not given) | 105
COc1cc(S)c(C(C)=O)c(OC)c1 | 57 to 59
CCCCC(CC)C(=O)Nc1ccc2ccn(Cc3ccc(C(=O)O)cc3OC)c2c1 (stereo not given) | 234 to 235
Cc1ccc2sc3cc(C(=O)O)ccc3c(=O)c2c1 | > 250
O=C1OC2(CC(c3ccccc3)=NO2)c2ccccc21 (stereo not given) | 103 to 106
O=C(NCCCOc1ccncc1)c1ccccc1CO | 108 to 109
CCOC(=O)c1ccc(/C=C(/COCc2ccc(OC)cc2)Cn2ccnc2)c(Cl)c1 | 41 to 42

Compound | melting point [°C]
CNC(=O)c1ccc(-c2cnc3[nH]c(=O)n(CC4CCOCC4)c3n2)cc1 | 328 to 330
Cn1cc(C#N)c([N+](=O)[O-])n1 | 85 to 87
Cc1nc(C(=O)NC23CC4CC(CC(C4)C2)C3)cn1-c1ccccc1 | 207 to 210
CN(C)CCc1[nH]c2ccccc2c1CC(N)=O | 114 to 117
COc1cc2c(c(C)c1C)C(=O)CC2c1c[nH]cn1 (stereo not given) | 258 to 261
O=Cc1cc(Cl)cc2c1OC(C(F)(F)F)C(C(=O)O)=C2 (stereo not given) | 243 to 252
CC1(C)CC=C(S(=O)(=O)c2ccccc2)CC1 | 51 to 53
Clc1ccc(-c2nnnn2Cc2cccnc2)cc1Cl | 166 to 168
O=C1N(Cc2sc(C(F)(F)F)cc2O)c2ccccc2C12COc1cc3c(cc12)OCO3 (stereo not given) | 225 to 227
CCCCCCCCCCCCCCCC(=O)n1nnnc1C(F)(F)F | 66 to 69
N#Cc1cnc2cc(O)ccc2c1Nc1ccc(Cl)cc1F | 295 to 305
CCCC(=O)c1cc(O)c(O)c([N+](=O)[O-])c1 | 88 to 90
COc1ccc(-c2nc(Sc3ccc(Cl)c(Cl)c3)[nH]c2-c2ccc(OC)cc2)cc1 | 113 to 115
CCOC(=O)c1cc2cc(OCCCS(C)(=O)=O)cc([N+](=O)[O-])c2[nH]1 | 162 to 163
CCC(=O)Nc1ccc(-c2ccnc3c(C(=O)c4ccco4)cnn23)cc1 | 235 to 237
O=C1CNCCN1c1cccc([N+](=O)[O-])c1 | 137 to 139
CC(C)(C)C(=O)SC[C@H](NC(=O)C(C)(C)S)C(=O)O | 115 to 117
O=C(c1ccc(Sc2ccc(O)cc2)cc1)c1ccc(Sc2ccc(O)cc2)cc1 | 219 to 221
COc1ccc(N2CCN(c3c(C)c(C)c4c(c3C)C(N3CCCCC3)C(C)(C)O4)CC2)cc1OC (stereo not given) | 134 to 135
NC(=O)Nc1ccc2c(c1)N1CCN=C1S2 | 300
COc1ccc(C(=O)c2ccccc2)cc1OCCCN1CCC(c2noc3cc(F)ccc23)CC1 | 140 to 141
COc1cccc(C(=O)Nc2nnn[nH]2)c1[N+](=O)[O-] | 271
OCCc1nccn1Cc1coc(-c2ccc(OCc3coc(/C=C/c4ccc(Cl)cc4F)n3)cc2)n1 | 170 to 172
CCCc1c(C(=O)NCc2ccc3cc(OCC(=O)OC)ccc3c2)cnn1-c1ccc(Cl)cc1 | 139 to 140
O=C1Nc2ccc(C#CCCN3CCC(Cc4ccccc4)CC3)cc2C1=O | 140 to 141

Compound | melting point [°C]
CC(C)OCCOc1ccc(-c2ccc3c(c2)C=C(C(=O)Nc2ccc(CN(C)C4CCOCC4)cc2)CCS3(=O)=O)cc1 | 214 to 215
Nc1cccc(C2=NCCO2)c1 | 126 to 128
CC(=O)N1CC(=O)NC(=Cc2ccc(OCc3ccccc3)cn2)C1=O | 189 to 191
CNC(=O)C1=CC2(CCOCC2)Oc2ccc([N+](=O)[O-])cc21 | 183 to 184
Cc1cc(C)c2c(c1)OC(=O)C2c1ccc(C(C)C)cc1 (stereo not given) | 76 to 77
COc1ccccc1N1CCN(CCCOC(=O)Cc2csc(NC(=O)c3ccc(F)cc3)n2)CC1 | 100
COc1ccc(-c2cc(Br)c3cc(OC)ccc3n2)cc1 | 157 to 158
Cn1nc2cccc(OCC3CC3)c2c1S(N)(=O)=O | 139 to 141
COCc1c[nH]c(-c2ccc(O)cc2)n1 | 191 to 192
CSc1nc(N)nc2c3nc(C)cc(C)c3nn12 | 306 to 307
O=C1N(Cc2cccc(-c3noc(C(F)(F)F)n3)c2)c2ccccc2C12COc1cc3c(cc12)CCO3 (stereo not given) | 182 to 188
O=C(c1ccccc1)c1cc2c(cc1O)C(C(=O)O)CC2 (stereo not given) | 185 to 187
CCOC(=O)CCNC(=O)N1CCc2cc(S(=O)(=O)N3CCN(c4cccc(Cl)c4)CC3)ccc21 | 162
Cn1nc(N)c2c(F)cccc21 | 125 to 127
COc1ccc(-c2c(NS(=O)(=O)c3ccc(C)cc3)ncnc2OCCO)cc1 | 147 to 149
COc1ccc(Cl)cc1CCCC(=O)O | 79 to 81
N#Cc1ccc2[nH]c(C(=O)C34CC5CC(CC(C5)C3)C4)cc2c1 | 250 to 252
COC(=O)C1=C(C)NC(C)=C(C(=O)OC)C1c1cc([N+](=O)[O-])ccc1OCCCCNCC(O)COc1ccc(OC)cc1 (stereo not given) | 154 to 155
CCCC1=NC(=NOC(=O)NC)SC1(C)C | 112 to 114
COc1ccc(Nc2ccn(Cc3ccccc3)n2)cc1 | 68 to 71
NNC(=O)[C@@H]1C[C@]2(NC(=O)NC2=O)c2cc(F)ccc2O1 | 277 to 278
O=C(O)C(=O)c1ccc(OCCCCOc2ccccc2)cc1 | 103 to 105
Fc1ccc(C2CC3CCC(C3)C23CO3)cc1 (stereo not given) | 178 to 180
COC(=O)NNC(=O)C=Cc1ccccc1 | 165
CCC(C)Oc1ccc(OCCNC(=O)C2CC2)cc1 (stereo not given) | 65 to 68

Compound | melting point [°C]
CSc1ccc(-c2nc(SC)c(C#N)c(=O)n2-c2ccc(C)c(C)c2)cc1 | 234 to 236
CC(C)C[C@H](NC(=O)[C@H](Cc1c[nH]cn1)NC(=O)[C@H](Cc1cccc2ccccc12)NC(=O)OCc1ccccc1)[C@H](O)CO | 176 to 178
COc1ccccc1Oc1c(NS(=O)(=O)c2ccc(C(C)(C)C)cc2)nc(NCCN(C)C)nc1OCCOC1CCCCO1 (stereo not given) | 82 to 86
CC(Oc1ccc(Cl)cc1[N+](=O)[O-])c1ccnc2ncnn12 (stereo not given) | 158
Cc1nc(N2CCN(Cc3ccc(F)cc3)C2=O)sc1C(=O)NCc1ccncc1 | 146 to 149
CC1CC(=O)N(c2ccccn2)N=C1c1ccc(OC2CCN(C(=O)OC(C)(C)C)CC2)cc1 (stereo not given) | 164 to 166
CCOCS(=O)(=O)c1ccc(C(CC2CCCC2)C(=O)Nc2nc3ccc(OC)nc3s2)cc1 (stereo not given) | 158 to 160
O=C(CCCCCCOc1ccc(O)cc1)C(F)(F)F | 61 to 62
CCCCOc1ccc(F)cc1OCCN1C(=O)c2ccccc2C1=O | 107 to 108
O=C(NCCc1ncc(Cl)cc1Cl)c1ccccc1I | 133
O=C(O)c1ccc(OCCNC(=O)C2Cc3ccccc3N2S(=O)(=O)c2ccc(-c3cc(C(F)(F)F)ccc3Cl)cc2)cc1Cl (stereo not given) | 106 to 112
COCC1COc2cc3ncnc(Nc4cc(Cl)cc(Cl)c4)c3cc2O1 (stereo not given) | 269 to 274
Cc1csc2c(C=O)ncn12 | 172 to 175
O=C(N[C@H](Cc1ccccc1C(F)(F)F)[C@@H](O)c1ccc(F)cc1)c1cccc2ccccc12 (racemic) | 193 to 194
c1coc(CNCc2ccc(-c3cc4ncnc(Nc5ccc6[nH]ccc6c5)c4s3)cc2)c1 | 125 to 134
Cc1nc2c(-c3cccc(N4C[C@@H](C)O[C@@H](C)C4)c3)cnn2c(N)c1-c1cccc(Cl)c1 | 165 to 167
O=C(O)CCCCCCC=Cc1cccs1 | 45 to 46
COc1ccc(Oc2cccnc2)cc1C#CC(C)N(O)C(N)=O (stereo not given) | 153 to 154
CC(C)(C)C(O)(Cn1cncn1)C(Br)=C(Cl)Br (stereo not given) | 78 to 81
N#Cc1cccnc1N1CCN(CC(=O)Nc2ccccc2C(F)(F)F)CC1 | 143 to 145
OCc1cccc(-n2cccc2)c1Br | 78 to 80
CCOc1cc(N(Cc2cccnc2)c2ccc(C(=O)O)cc2)ccc1OC(F)F | 178 to 179
O=C(O)CCCCCCCCCCCCCCCI | 71 to 72
Cc1cc(C)c(Nc2nc(C)ccc2S(=O)(=O)c2ccc(OCc3ccccc3C#N)cc2)c(C)c1 | 208 to 210
COc1cc(N2CCCN(C[C@H](O)CO)CC2)ccc1Nc1ncc2ccc(-c3ccccc3OC)n2n1 | 93 to 99

From a melting point compilation (Tetko et al.; mined from patent text by program, amines drawn as free bases though some values may be those of a salt)
